{"source": "paper PMC11124525", "about": "“Pharmacokinetic–Pharmacodynamic Correlation Analysis of Rhodiola crenulata in Rats with Myocardial Ischemia” (Pharmaceuticals, 2024)", "key": {"[1]": {"system": "SOD", "test": "PK-PD sigmoid-Emax model, PD index SOD in MDG rats", "format": "in vivo, SD rats", "set-up": "Ke0: unit not given beside the values"}, "[2]": {"system": "LDH", "test": "PK-PD sigmoid-Emax model, PD index LDH in MDG rats", "quoted_text": "Subsequently, we incorporated the PK and PD data to conduct PK-PD modeling through DAS.\nTherefore, PK-PD correlation analysis was used in this study, linking dynamic concentration–time processes and effect–time profile relationships [20, 21, 22]. […] The model adopted in this study is the S-Emax model. In the equation, γ means the shape factor in the formula, affecting the slope and determining the steepness of the curve. Emax can provide the maximum response intensity, and ED50 is for evaluating the safety of the drug, which is understood as the amount of the drug that causes 50% of the maximum response intensity.\nPlasma creatine kinase (CK), hydroxybutyrate dehydrogenase (HBDH), lactate dehydrogenase (LDH), and superoxide dismutase (SOD) activity was determined using an automatic biochemical analyzer.\nThe activity of the CK, HBDH, LDH, and SOD of plasma samples collected at different time points was determined using an automatic biochemical analyzer for PD index evaluation. […] Two compartmental methods were used, employing the drug and statistics, which was supplied by the Chinese Pharmacological Society. Then, the efficacy indicators were fitted in the PK-PD model."}, "[3]": {"conditions": "myocardial infarction induced by isoproterenol; cited from earlier work"}, "[4]": {"conditions": "for Stability RE (%): rat plasma, n = 6", "description": "A series concentration mixed reference solution with different concentrations was added to 100 μL plasma, and was treated according to the method under Section 4.6 to obtain the matrix standard curve sample. Samples with concentrations of 400, 100, and 10 ng/mL, respectively, were taken as quality control (QC) samples of high, medium, and low concentrations (HQC, MQC, LQC). The method was validated, including linearity, inter-day/intra-day precision, repeatability, stability, extraction recovery, and matrix effect, according to FDA bioanalytical method validation guidelines."}, "[5]": {"test": "PK of five RC components in sham operation administration (SDG, normal) rats after oral RC extract, HPLC-QQQ-MS/MS, DAS", "format": "in vivo, SD rats", "conditions": "SD, rat, in vivo, po, 2 g/kg", "description": "(§1) The drug concentration in plasma was calculated using the standard curve, and the mean blood concentration was plotted against the time to obtain the mean blood concentration–time curve (Figure 4).\n(§2) The rat model of MI was made with Pit. The rats were divided into a sham operation group (SG), sham operation administration group (SDG), model group (MG), and model administration group (MDG) (n = 6 for each group). The MI model was prepared via an intraperitoneal injection (a single time) of Pit in the MG and MDG, with a dosage of 20 U/kg and a volume of 10 mL/kg. At the same time, the rats in the SG and SDG groups were given the same volume of saline in the same way.\n(§3) RC extract (2 g/kg, equivalent to human clinical equivalent dose) was given to rats via oral administration in SDG and MDG, and the same volume of normal saline was orally administered to the SG and MG. Rats were fasted for 12 h before the experiment. Blood was collected from the fundus venous plexus at 0, 5, 10, 15, 30, 45 min, 1, 2, 4, 6, 8, 12, and 24 h after in gavage, placed in a centrifuge tube impregnated with heparin sodium, centrifuged at 3500 rpm for 15 min, and then the plasma was collected and divided into two parts. One part was used for biochemical index determination and the other part was used to determine the content of pharmaceutical ingredients in vivo. After the experiment, the rats were sacrificed, and the hearts were placed in paraformaldehyde for histopathological analysis.\n(§4) The plasma sample of 100 μL was accurately absorbed, 50 μL internal standard solution (Nimodipine, 500 ng/mL) was added, then 300 μL acetonitrile precipitated protein was added, vortex for 10 min, placed under ultrasound for 3 min, centrifuged at 13,000 rpm for 10 min, and then the supernatant was transferred to another centrifuge tube. It was then concentrated until dry with a rotary evaporator. The residue was redissolved with 100 μL 50% acetonitrile, swirled for 1 min, placed under ultrasonic for 3 min, centrifuged at 13,000 rpm for 10 min, and the supernatant was taken for analysis.\n(§5) A validated HPLC-QQQ-MS/MS method was used for the determination of drug-derived components in plasma samples at different time points. The accompanying standard curve was substituted to calculate the content of the compounds to be measured, and then the PK parameters were calculated using DAS software (version 3.2.8), and the blood concentration–time curve was plotted using GraphPad Prism (version 8.0.2). PK behavior was compared between the sham operation and model group, and PK models were established, respectively."}, "[6]": {"test": "PK of five RC components in pituitrin-induced myocardial ischemia (MDG) rats after oral RC extract, HPLC-QQQ-MS/MS, DAS", "format": "in vivo, SD rats", "conditions": "SD, rat, in vivo, po, 2 g/kg", "description": "as §1, §2, §3, §4, §5"}, "[7]": {"system": "HBDH", "test": "PK-PD sigmoid-Emax model, PD index HBDH in MDG rats", "format": "in vivo, SD rats", "set-up": "unit not given beside the values"}, "[8]": {"system": "AST", "test": "PK-PD sigmoid-Emax model, PD index AST in MDG rats", "format": "in vivo, SD rats", "set-up": "unit not given beside the values"}, "[9]": {"system": "CK", "test": "PK-PD sigmoid-Emax model, PD index CK in MDG rats", "format": "in vivo, SD rats", "set-up": "Emax: unit not given beside the values"}}, "note": "Read-outs that look alike come from different tables or passages of the source.", "data": [{"smiles": "O=C(O)c1cc(O)c(O)c(O)c1", "note": "[Gallic Acid, gallic acid]", "values": [{"measurement": "Emax", "setting": "[1]", "result": 73.435}, {"measurement": "Ke0", "setting": "[1]", "result": 0.022}, {"measurement": "Emax", "setting": "[2]", "result": 580.413}, {"measurement": "CLZ/F in modeled rats vs normal rats", "setting": "[3]", "result": "significantly decreased"}, {"measurement": "T1/2 and MRT in modeled rats vs normal rats", "setting": "[3]", "result": "prolonged"}, {"measurement": "Stability RE (%)", "setting": "[4]; 4 °C, 48 h, spiked 10 ng/mL", "result": 100.2, "unit": "%"}, {"measurement": "Stability RE (%)", "setting": "[4]; 4 °C, 48 h, spiked 50 ng/mL", "result": 103.3, "unit": "%"}, {"measurement": "Stability RE (%)", "setting": "[4]; 4 °C, 48 h, spiked 400 ng/mL", "result": 99.11, "unit": "%"}, {"measurement": "Stability RE (%)", "setting": "[4]; three freeze–thaw cycles, spiked 10 ng/mL", "result": 98.58, "unit": "%"}, {"measurement": "Stability RE (%)", "setting": "[4]; three freeze–thaw cycles, spiked 50 ng/mL", "result": 105.6, "unit": "%"}, {"measurement": "Stability RE (%)", "setting": "[4]; three freeze–thaw cycles, spiked 400 ng/mL", "result": 90.26, "unit": "%"}, {"measurement": "Stability RE (%)", "setting": "[4]; −80 °C, 10 days, spiked 10 ng/mL", "result": 99.77, "unit": "%"}, {"measurement": "Stability RE (%)", "setting": "[4]; −80 °C, 10 days, spiked 400 ng/mL", "result": 96.65, "unit": "%"}, {"measurement": "Stability in plasma samples (in words)", "setting": "[4]; simulated sample storage, handling and analysis (48 h at 4 °C and 10 days in 3 freeze–thaw cycles)", "result": "stable"}, {"measurement": "AUC(0-inf)", "setting": "[5]", "result": "0.55 ± 0.169", "unit": "µg·h/mL"}, {"measurement": "AUC(0-t)", "setting": "[5]", "result": "0.475 ± 0.112", "unit": "µg·h/mL"}, {"measurement": "CL/F", "setting": "[5]", "result": 9.88, "unit": "L/h/kg"}, {"measurement": "Cmax", "setting": "[5]", "result": "0.103 ± 0.0162", "unit": "µg/mL"}, {"measurement": "MRT", "setting": "[5]", "result": "4.32 ± 1.26", "unit": "h"}, {"measurement": "MRT inf", "setting": "[5]", "result": "8.92 ± 5.98", "unit": "h"}, {"measurement": "Tmax", "setting": "[5]", "result": "0.92 ± 0.13", "unit": "h"}, {"measurement": "Vd/F", "setting": "[5]", "result": "116 ± 83.1", "unit": "L/kg"}, {"measurement": "half-life", "setting": "[5]", "result": "10.2 ± 8.73", "unit": "h"}, {"measurement": "AUC(0-inf)", "setting": "[6]", "result": "0.664 ± 0.221", "unit": "µg·h/mL"}, {"measurement": "AUC(0-t)", "setting": "[6]", "result": "0.531 ± 0.0609", "unit": "µg·h/mL"}, {"measurement": "CL/F", "setting": "[6]", "result": 8.13, "unit": "L/h/kg"}, {"measurement": "Cmax", "setting": "[6]", "result": "0.13 ± 0.0199", "unit": "µg/mL"}, {"measurement": "MRT", "setting": "[6]", "result": "5.53 ± 0.59", "unit": "h"}, {"measurement": "MRT inf", "setting": "[6]", "result": "13.6 ± 10.6", "unit": "h"}, {"measurement": "Vd/F", "setting": "[6]", "result": "134 ± 68.9", "unit": "L/kg"}, {"measurement": "half-life", "setting": "[6]", "result": "13.8 ± 10.9", "unit": "h"}, {"measurement": "Tmax", "setting": "[6]; Tmax", "result": "0.92 ± 0.13", "unit": "h"}, {"measurement": "Tmax", "setting": "[6]; Tmax (approximate)", "result": "~1", "unit": "h"}, {"measurement": "Emax", "setting": "[7]", "result": 3540.625}, {"measurement": "Ke0", "setting": "[7]", "result": 0.439}, {"measurement": "Emax", "setting": "[8]", "result": 1375.057}, {"measurement": "Ke0", "setting": "[8]", "result": 2.998}, {"measurement": "Emax", "setting": "[9]", "result": 2290.745}, {"measurement": "Ke0", "setting": "[9]", "result": 1.909}]}]}
